Laboratory results published in PubChem BioAssay (NCI).
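Interpolation was linear, between the two tested concentrations surrounding the appropriate level; five concentrations were tested over 48 hours in 96-well plates. The concentration for 50% growth inhibition is given as GI50. TGI is the concentration that stops growth completely.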

Legend:
Assay in all cases: NCI tumour cell line growth inhibition, 48 h
[1] = test system: SF-268 CNS
[2] = test system: SNB-75 CNS
[3] = test system: SN12C renal
[4] = test system: COLO 205 colon
[5] = test system: NCI-H460 lung
[6] = test system: MDA-MB-231 breast
[7] = test system: NCI/ADR-RES ovarian
[8] = test system: M14 melanoma
[9] = test system: SR leukemia
[10] = test system: HT29 colon
[11] = test system: HS 578T breast
[12] = test system: OVCAR-4 ovarian
[13] = test system: CAKI-1 renal
[14] = test system: SF-539 CNS
[15] = test system: ACHN renal
[16] = test system: TK-10 renal
[17] = test system: HCC-2998 colon
[18] = test system: DU-145 prostate
[19] = test system: UO-31 renal
[20] = test system: UACC-257 melanoma
[21] = test system: SNB-19 CNS
[22] = test system: 786-0 renal
[23] = test system: RXF 393 renal
[24] = test system: PC-3 prostate
[25] = test system: RPMI-8226 leukemia
[26] = test system: SK-MEL-2 melanoma
[27] = test system: IGROV1 ovarian
[28] = test system: MALME-3M melanoma
[29] = test system: MCF7 breast
[30] = test system: BT-549 breast
[31] = test system: HCT-15 colon
[32] = test system: HOP-62 NSCLC
[33] = test system: HOP-92 NSCLC
[34] = test system: A549 NSCLC
[35] = test system: U251 CNS
[36] = test system: A498 renal
[37] = test system: OVCAR-5 ovarian
[38] = test system: OVCAR-3 ovarian
[39] = test system: SW-620 colon
[40] = test system: EKVX NSCLC
[41] = test system: SF-295 CNS
[42] = test system: UACC-62 melanoma
[43] = test system: SK-OV-3 ovarian
[44] = test system: K-562 leukemia
[45] = test system: NCI-H226 lung
[46] = test system: SK-MEL-5 melanoma
[47] = test system: HL-60(TB) leukemia
[48] = test system: MOLT-4 leukemia
[49] = test system: CCRF-CEM leukemia
[50] = test system: T-47D breast
[51] = test system: SK-MEL-28 melanoma

COc1ccc2[nH]cc(-c3csc4nc(-c5ccccc5)cn34)c2c1
GI50 [1]: 823 nM
TGI [1]: > 80800 nM
GI50 [2]: 240 nM
TGI [2]: 779 nM
GI50 [3]: 470 nM
TGI [3]: > 100000 nM
GI50 [4]: 334 nM
TGI [4]: 1150 nM
GI50 [5]: 374 nM
TGI [5]: 2530 nM
GI50 [6]: 524 nM
TGI [6]: > 100000 nM
GI50 [7]: 252 nM
TGI [7]: 1320 nM
GI50 [8]: 295 nM
TGI [8]: > 100000 nM
GI50 [9]: 66 nM
TGI [9]: > 100000 nM
GI50 [10]: 324 nM
TGI [10]: 1120 nM
GI50 [11]: 328 nM
TGI [11]: 10300 nM
GI50 [12]: 2220 nM
TGI [12]: > 100000 nM
GI50 [13]: 404 nM
TGI [13]: 12100 nM
GI50 [14]: 359 nM
TGI [14]: 1830 nM
GI50 [15]: 612 nM
TGI [15]: 20600 nM
GI50 [16]: 6970 nM
TGI [16]: 42600 nM
GI50 [17]: 602 nM
TGI [17]: 3750 nM
GI50 [18]: 576 nM
TGI [18]: > 100000 nM
GI50 [19]: 465 nM
TGI [19]: 32000 nM
GI50 [20]: 525 nM
TGI [20]: > 100000 nM
GI50 [21]: 616 nM
TGI [21]: > 100000 nM
GI50 [22]: 599 nM
TGI [22]: > 19900 nM
GI50 [23]: 553 nM
TGI [23]: 4770 nM
GI50 [24]: 412 nM
TGI [24]: > 100000 nM
GI50 [25]: 416 nM
TGI [25]: 3860 nM
GI50 [26]: 291 nM
TGI [26]: 851 nM
GI50 [27]: 477 nM
TGI [27]: > 100000 nM
GI50 [28]: 492 nM
TGI [28]: 31800 nM
GI50 [29]: 276 nM
TGI [29]: > 100000 nM
GI50 [30]: 508 nM
TGI [30]: 4800 nM
GI50 [31]: 242 nM
TGI [31]: > 23100 nM
GI50 [32]: 579 nM
TGI [32]: 19100 nM
GI50 [33]: 424 nM
TGI [33]: 5300 nM
GI50 [34]: 891 nM
TGI [34]: > 88400 nM
GI50 [35]: 401 nM
GI50 [36]: 3730 nM
GI50 [37]: 709 nM
TGI [37]: > 100000 nM
GI50 [38]: 355 nM
TGI [38]: 3320 nM
GI50 [39]: 360 nM
TGI [39]: > 100000 nM
GI50 [40]: 804 nM
TGI [40]: > 100000 nM
GI50 [41]: 395 nM
TGI [41]: 4240 nM
GI50 [42]: 327 nM
TGI [42]: 20800 nM
GI50 [43]: 489 nM
TGI [43]: > 43900 nM
GI50 [44]: 139 nM
TGI [44]: > 100000 nM
GI50 [45]: 947 nM
TGI [45]: 5760 nM
GI50 [46]: 407 nM
TGI [46]: 3640 nM
GI50 [47]: 287 nM
TGI [47]: > 100000 nM
GI50 [48]: 440 nM
TGI [48]: > 51900 nM
GI50 [49]: 248 nM
TGI [49]: > 100000 nM
GI50 [50]: 382 nM
TGI [50]: > 100000 nM
GI50 [51]: 724 nM
TGI [51]: > 90200 nM
